ChEMBL document CHEMBL4665775, “Half-life extension of peptidic APJ agonists by N-terminal lipid conjugation” (Bioorg Med Chem Lett, 2020)
Active and inactive are the calls of the source. The rule behind the calls is not given here.

Key:
[1] = system: Rattus norvegicus; test: Positive […] activity in anesthetized Lewis rat model of myocardial infarction assessed as plasma concentration for maximal pharmacodynamic effect at 1 mg/kg/min, iv administered as continuous infusion for 20 mins; type: functional
[2] = system: Rattus norvegicus; test: Positive […] activity in anesthetized Lewis rat model of myocardial infarction assessed as increase in ejection fraction at 1 mg/kg/min, iv administered as continuous infusion for 20 mins; type: functional
[3] = Unbound Cmax in rat at 0.5 mg/kg, sc at 15 mins; type: ADME, organism-based; settings: in vivo, 0.25 h
[4] = Terminal half life in rat at 0.1 mg/kg, iv for 30 mins; type: ADME, organism-based; settings: in vivo, read-out: beta t1/2
[5] = system: Rattus norvegicus; test: Positive […] activity in anesthetized Lewis rat model of myocardial infarction assessed as increase in ejection fraction at 3.7 ug/kg/min, iv administered as infusion for 30 mins; type: functional, organism-based; settings: dose 3.7 µg/kg/min
[6] = system: Rattus norvegicus; test: Agonist activity at APJ receptor in anesthetized Lewis rat model of myocardial infarction assessed as target coverage at 3.7 ug/kg/min, iv administered as continuous infusion for 30 mins; type: functional, organism-based; settings: dose 3.7 µg/kg/min
[7] = Agonist activity at APJ receptor in anesthetized Lewis rat model of myocardial infarction assessed as target coverage at 30 ug/kg/min iv administered as continuous infusion for 30 mins relative to control; type: functional; settings: dose 30 µg/kg/min, 0.5 h
[8] = Agonist activity at APJ receptor in anesthetized Lewis rat model of myocardial infarction assessed as target coverage at 10 ug/kg/min iv administered as continuous infusion for 30 mins relative to control; type: functional; settings: dose 10 µg/kg/min, 0.5 h
[9] = Unbound fraction in anesthetized Lewis rat myocardial infarction model plasma assessed as free plasma concentration at 30 ug/kg/min, iv administered as continuous infusion for 30 mins; type: ADME, organism-based; settings: in vivo, 0.03 mg/kg, 0.5 h, dose 30 µg/kg/min
[10] = Unbound fraction in anesthetized Lewis rat myocardial infarction model plasma assessed as free plasma concentration at 10 ug/kg/min, iv administered as continuous infusion for 30 mins; type: ADME, organism-based; settings: in vivo, 0.01 mg/kg, 0.5 h, dose 10 µg/kg/min
[11] = Unbound fraction in anesthetized Lewis rat myocardial infarction model plasma assessed as free plasma concentration at 3.7 ug/kg/min, iv administered as continuous infusion for 30 mins; type: ADME, organism-based; settings: in vivo, 0.0037 mg/kg, 0.5 h, dose 3.7 µg/kg/min
[12] = system: Rattus norvegicus; test: Positive […] activity in anesthetized Lewis rat model of myocardial infarction assessed as increase in ejection fraction at 30 ug/kg/min, iv administered as infusion for 30 mins; type: functional; settings: dose 30 µg/kg/min, 0.5 h
[13] = system: Rattus norvegicus; test: Positive […] activity in anesthetized Lewis rat model of myocardial infarction assessed as increase in ejection fraction at 10 ug/kg/min, iv administered as continuous infusion for 30 mins; type: functional; settings: dose 10 µg/kg/min, 0.5 h
[14] = target: T1, Apelin receptor (Rattus norvegicus, UniProt Q9JHG3); test: Agonist activity at rat APJ receptor stably expressed in CHO cell membranes in presence of [35S]GTPgammaS by scintillation proximity assay; type: functional
T1 sequence (Q9JHG3 whole entry): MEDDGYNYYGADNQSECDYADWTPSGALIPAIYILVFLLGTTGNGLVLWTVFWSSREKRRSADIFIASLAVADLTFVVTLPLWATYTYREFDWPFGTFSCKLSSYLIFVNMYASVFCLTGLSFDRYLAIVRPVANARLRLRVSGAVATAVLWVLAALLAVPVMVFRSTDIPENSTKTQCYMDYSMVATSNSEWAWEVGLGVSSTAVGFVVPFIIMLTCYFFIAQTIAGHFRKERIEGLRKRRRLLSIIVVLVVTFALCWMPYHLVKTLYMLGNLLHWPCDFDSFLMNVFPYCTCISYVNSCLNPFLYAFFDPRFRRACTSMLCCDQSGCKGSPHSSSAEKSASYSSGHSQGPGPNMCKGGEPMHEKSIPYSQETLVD

[15] = Stability in rat plasma assessed as compound remaining at 4 hrs; type: ADME, cell-free; settings: read-out: Stabilty
[16] = Stability in rat liver S9 fraction assessed as compound remaining at 4 hrs; type: ADME, subcellular; settings: read-out: Stabilty
[17] = Stability in rat Kidney S9 fraction assessed as compound remaining at 4 hrs; type: ADME, subcellular; settings: read-out: Stabilty
[18] = Plasma protein binding in rat assessed as unbound fraction by LC-MS/MS analysis; type: ADME, cell-free

CSCC[C@H](NC(=O)[C@@H]1CCCN1C(=O)CNC(=O)[C@H](CCCCN)NC(=O)[C@H](Cc1cnc[nH]1)NC(=O)[C@H](CO)NC(=O)[C@H](CC(C)C)NC(=O)[C@H](CCCNC(=N)N)NC(=O)[C@@H]1CCCN1C(=O)[C@H](CCCNC(=N)N)NC(=O)[C@@H]1CCC(=O)N1)C(=O)N1CCC[C@H]1C(=O)N[C@@H](Cc1ccccc1)C(=O)O
MPE [1]: 16.4 µM
Activity [2]: 16.6%

CCCCCCCCCCCCC(=O)N[C@@H](CCC(=O)NCCOCCOCC(=O)NCCOCCOCC(=O)N[C@@H](CCC(N)=O)C(=O)N[C@@H](CCCNC(=N)N)C(=O)N1CCC[C@H]1C(=O)N[C@@H](CCCNC(=N)N)C(=O)N[C@@H](CC(C)C)C(=O)N[C@@H](CO)C(=O)N[C@@H](Cc1c[nH]cn1)C(=O)N[C@@H](CCCCN)C(=O)NCC(=O)N1CCC[C@H]1C(=O)N[C@@H](CCSC)C(=O)N1CCC[C@H]1C(=O)N[C@@H](Cc1ccccc1)C(=O)O)C(=O)O
fCmax [3]: 0.3 nM
half-life [4]: 4.3 min
Activity [5]: inactive
Activity [6]: inactive
fold change (FC) [7]: 6.3
fold change (FC) [8]: 2.7
Cp(f) [9]: 29 nM
Cp(f) [10]: 12 nM
Cp(f) [11]: 3 nM
Activity [12]: 6.1%
Activity [13]: 22.8%
EC50 [14]: 4.6 nM
remaining at 4 h [15]: 51%
remaining at 4 h [16]: > 90%
remaining at 4 h [17]: 82%
fraction unbound [18]: 0.011
